The values that follow come from PMC9564337, “Development of a Neurotensin-Derived ^68Ga-Labeled PET Ligand with High In Vivo Stability for Imaging of NTS1 Receptor-Expressing Tumors” (Cancers, 2022).

Broadly, the fraction remaining is what is left of the initial amount, in per cent.

Read-outs that look alike come from different tables or passages of the source. Marks after values point to notes of the source that are not given here. Some results are limits rather than exact numbers.

The conditions of data set [1]: cited from earlier work.
The target of the next data set is T1, hNTS1R (Homo sapiens, UniProt P30989).
T1 construct: intact HT-29 colon carcinoma cells expressing the hNTS1R; host or cells: HT-29 human colon carcinoma cells
Kind of data set: radioligand competition binding with [3H]UR-MK300 at intact HT-29 cells. The note with it: for Ki: [3H]UR-MK300 c = 1 nM, HT-29 cells, 23 °C. The text has this:
Specific binding data (obtained by subtracting unspecific binding from total binding) were normalized (100% = specifically bound radioligand in the absence of competitor) and plotted over log(concentration of competitor) followed by a four-parameter logistic fit (SigmaPlot 12.5, Systat Software, San José, CA, USA) (note: in the case of 40, the lower curve plateau of the sigmoidal fit was constrained to >0). […] The Ki values from individual experiments were transformed to pKi values, followed by the calculation of mean pKi values ± SD.
A general note: Displacement assays read how much labelled ligand stays bound in the presence of the test substance.

A short description of the next data set: in vitro. To be noted: human; for remaining at 1 h, 100 µM / remaining at 6 h, 100 µM / remaining at 24 h, 100 µM / remaining at 48 h, 100 µM: plasma; for remaining at 1 h, 100 µM: pH 7.4, % Intact Peptide in Plasma after 1 h; for remaining at 6 h, 100 µM: pH 7.4, % Intact Peptide in Plasma after 6 h; for remaining at 24 h, 100 µM: pH 7.4, % Intact Peptide in Plasma after 24 h; for remaining at 48 h, 100 µM: pH 7.4, % Intact Peptide in Plasma after 48 h. It is filed as in vitro ADME. As to the method: The concentration of the peptides in plasma/PBS (1:2 v/v) was 80 and 4 μM (recovery determination) or 100 μM (stability tests). Data analysis was based on UV detection at 220 nm (8, 9, 11, 12, 14-18, 21-23, 38-49, and 54-57) or fluorescence detection at 275/305 nm (19 and 20). Reference samples, representing 100% recovery, were prepared in duplicate (8, 9, 11, 14-16, and 19-21) or quadruplicate (12, 17, 18, 22, 23, 38-49, and 54-57). Recovery ratios were obtained by dividing the recovery of the peptide by the recovery of IS for each individual sample (n = 3-5). The obtained recoveries and the recovery ratios are summarized in Table S2, Supplementary Materials. […] Instead, the recovery ratios determined for the previously reported, structurally closely related peptide […] [40] were used for calculating the amount of remaining intact peptide in plasma.

The target of another data set is hNTS2R (Homo sapiens, UniProt O95665). Kind of data set: radioligand competition binding with [3H]UR-MK300 at intact HEK293T-hNTS2R cells. To be noted: [3H]UR-MK300 c = 10 nM. As to the method: Two days prior to the experiment, white 96-well plates with clear bottoms (Costar, catalog no. 3610) were treated with poly-D-lysine hydrobromide (Sigma-Aldrich) for 10 min. The wells were washed with H2O and the plates were dried on air at rt overnight. […] After removal of the glutaraldehyde solution, the wells were washed twelve times with H2O and two times with culture medium (150–300 µL). […] On the day of the experiment, the culture medium was carefully removed using a multi-channel pipette (Transferpette S-12, Brand, Wertheim, Germany) and the cells were washed once with Dulbecco’s phosphate-buffered saline (D-PBS) containing Ca^2+ and Mg^2+ (1.8 mM CaCl2, 2.68 mM KCl, 1.47 mM KH2PO4, 3.98 mM MgSO4, 136.9 mM NaCl and 8.06 mM Na2HPO4) (200 μL, rt) followed by the careful pre-filling of the wells with 180 µL (total binding) or 160 µL (unspecific and competition binding) of D-PBS, supplemented with 1% BSA and 100 μg/mL bacitracin (Serva, Heidelberg, Germany) (in the following referred to as binding buffer). To determine total binding, 20 µL of a solution of the radioligand in binding buffer (10-fold concentrated compared to the final concentration) were added. […] To determine the displacing effect of a compound of interest, 20 µL of a solution of the respective compound in binding buffer (10-fold concentrated) and 20 µL of a 10-fold concentrated solution of the radioligand in binding buffer were added. During the incubation period of 2 h at 23 °C, the plates were gently shaken. […] The plates were sealed with a transparent sealing tape (permanent seal for microplates, PerkinElmer, product no. 1450–461) and turned upside down several times to achieve complete mixing. Prior to the measurement of the radioactivity with a MicroBeta2 plate counter (PerkinElmer), the plates were kept in the dark for at least 1 h. All experiments were performed in triplicate.

Where [2] appears, read: read-out: Ki [nM] NTS1R (converted).
Setting [3] is: read-out: Ki [nM] NTS2R (converted).
Setting [4] is: read-out: pKi ± SD NTS2R (converted).

T1 sequence (P30989 whole entry): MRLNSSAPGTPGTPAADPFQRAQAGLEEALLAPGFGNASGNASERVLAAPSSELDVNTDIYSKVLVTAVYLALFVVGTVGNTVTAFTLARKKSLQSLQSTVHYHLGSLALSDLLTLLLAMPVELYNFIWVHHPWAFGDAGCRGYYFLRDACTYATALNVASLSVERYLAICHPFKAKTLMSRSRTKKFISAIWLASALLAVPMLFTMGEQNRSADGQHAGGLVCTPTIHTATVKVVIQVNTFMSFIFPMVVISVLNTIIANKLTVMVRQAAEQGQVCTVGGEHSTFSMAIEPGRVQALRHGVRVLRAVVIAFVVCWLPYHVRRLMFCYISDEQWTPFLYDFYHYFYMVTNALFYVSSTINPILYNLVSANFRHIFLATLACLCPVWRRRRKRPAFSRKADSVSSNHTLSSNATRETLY
Chain of hNTS2R (O95665 whole entry): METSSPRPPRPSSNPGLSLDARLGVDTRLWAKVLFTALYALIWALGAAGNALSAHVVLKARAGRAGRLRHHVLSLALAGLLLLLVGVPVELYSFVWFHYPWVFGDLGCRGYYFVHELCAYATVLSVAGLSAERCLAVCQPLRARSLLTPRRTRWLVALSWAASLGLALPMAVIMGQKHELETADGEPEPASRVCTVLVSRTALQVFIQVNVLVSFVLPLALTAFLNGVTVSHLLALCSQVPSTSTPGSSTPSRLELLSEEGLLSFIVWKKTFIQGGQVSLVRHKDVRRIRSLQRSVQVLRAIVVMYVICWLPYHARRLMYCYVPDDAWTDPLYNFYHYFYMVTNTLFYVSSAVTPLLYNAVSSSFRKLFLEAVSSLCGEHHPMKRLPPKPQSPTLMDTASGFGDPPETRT

`CC[C@H](C)[C@H](NC(=O)[C@H](Cc1ccc(O)cc1)NC(=O)[C@@H]1CCCN1C(=O)[C@H](CCCNC(=N)N)NC(=O)[C@@H](N)CCCNC(=N)N)C(=O)N[C@@H](CC(C)C)C(=O)O` [Compound 1, Arg^8-Arg^9-Pro^10-Tyr^11-Ile^12-Leu^13]: the plasma half-life entry in data set [1] is “only a few minutes”. Further, the “% Intact Peptide in Plasma after 10 min” value in data set [1] (human plasma, 37 °C, 10 min, ref Schindler et al. [40]) is recorded as 23 ^d %. In addition, the “% Intact Peptide in Plasma after 1 h” value in data set [1] (human plasma, 37 °C, 1 h, ref Schindler et al. [40]) is listed as <1 ^d %. For the same compound, the “% Intact Peptide in Plasma after 24 h” value in data set [1] (human plasma, 37 °C, 24 h, ref Schindler et al. [40]) is given as <1 ^d %. Besides, the “% Intact Peptide in Plasma after 48 h” value in data set [1] (human plasma, 37 °C, 48 h, ref Schindler et al. [40]) is on record as <1 ^d %.

With `CN[C@@H](CCCNC(N)=NC(=O)NCCCCNC(=O)CN1CCN(CC(=O)O)CCN(CC(=O)O)CCN(CC(=O)O)CC1)C(=O)N[C@@H](CCCNC(=N)N)C(=O)N1CCC[C@H]1C(=O)N[C@@H](Cc1ccc(O)cc1)C(=O)N[C@H](C(=O)N[C@@H](CC(C)C)C(=O)O)C(C)(C)C` [Compound 16], at hNTS1R, the “NTS1R Selectivity (Ratio Ki (NTS2R)/Ki (NTS1R))” value turned out to be 4.5. Also, the Ki on hNTS1R (setting [2]) was 33 nM; on hNTS1R (read-out: pKi ± SD NTS1R (converted)) it was 33.1 nM; on hNTS2R (setting [3]), 150 nM; on hNTS2R (setting [4]) it was 138 nM. In addition, the “% Intact Peptide in Plasma after 24 h” value in “in vitro” (100 µM, pH 7.4) is recorded as 93 ± 3%. In addition, in the data set “in vitro” (48 h, 100 µM, pH 7.4), the “% Intact Peptide in Plasma after 48 h” value was found to be 84 ± 2%.

As for `CN[C@@H](CCCNC(=N)N)C(=O)N[C@@H](CCCNC(=N)NC(=O)NCCCCN)C(=O)N1CCC[C@H]1C(=O)N[C@@H](Cc1ccc(O)cc1)C(=O)N[C@H](C(=O)N[C@@H](CC(C)C)C(=O)O)C(C)(C)C` [Compound 8], on hNTS1R, the “NTS1R Selectivity (Ratio Ki (NTS2R)/Ki (NTS1R))” value is on record as 4.2. Also, the Ki at hNTS1R (setting [2]) is 5.3 nM. In “in vitro”, this compound gave a fraction remaining at 1 h, 100 µM above 99%; a share remaining at 6 h, 100 µM above 99%; a share remaining at 24 h, 100 µM above 99%; a fraction remaining at 48 h, 100 µM above 99%. The Ki on hNTS2R (setting [3]) is 22 nM. The Ki at hNTS2R (setting [4]) is 20.9 nM.

On to `CC(C)C[C@H](NC(=O)[C@@H](NC(=O)[C@H](Cc1ccc(O)cc1)NC(=O)[C@@H]1CCCN1C(=O)[C@H](CCCNC(=N)NC(=O)NCCCCNC(=O)CN1CCN(CC(=O)O)CCN(CC(=O)O)CCN(CC(=O)O)CC1)N(C)C(=O)[C@@H](N)CCCNC(=N)N)C(C)(C)C)C(=O)O` [Compound 17], for which the “NTS1R Selectivity (Ratio Ki (NTS2R)/Ki (NTS1R))” value at hNTS1R was 6.4. For the same compound, the Ki is 36 nM at hNTS1R (setting [2]), 230 nM at hNTS2R (setting [3]) and 224 nM at hNTS2R (setting [4]). Also, the “% Intact Peptide in Plasma after 24 h” value in the data set “in vitro” (100 µM, pH 7.4) was determined as 98 ± 1%. The share remaining at 1 h, 100 µM in “in vitro” turned out to be 97 ± 1%. Besides, the fraction remaining at 6 h, 100 µM in “in vitro” is 99 ± 1%.

Turning to `CC(C)C[C@H](NC(=O)[C@@H](NC(=O)[C@H](Cc1ccc(O)cc1)NC(=O)[C@@H]1CCCN1C(=O)[C@H](CCCNC(=N)NC(=O)NCCCCN)N(C)C(=O)[C@@H](N)CCCNC(=N)N)C(C)(C)C)C(=O)O` [Compound 11], on hNTS1R, the “NTS1R Selectivity (Ratio Ki (NTS2R)/Ki (NTS1R))” value was 2.1. Besides, the Ki on hNTS1R (setting [2]) was 13 nM. Further, in “in vitro”, the amount remaining at 1 h, 100 µM is above 99%; the amount remaining at 6 h, 100 µM is above 99%; the fraction remaining at 24 h, 100 µM was above 99%; the share remaining at 48 h, 100 µM was above 99%. The Ki at hNTS2R (setting [3]) was 27 nM.
